Counter-ions that a name gives are not always drawn.
Molecular target: T1, CFTR channel in human colonic T84 cells (Homo sapiens, UniProt P13569)
T1 construct: results in the phosphorylation and opening of CFTR anion channels; host or cells: human colonic T84 cells
Test: T84 assay (FLIPR membrane potential dye, forskolin/IBMX-stimulated CFTR)
Assay type: cell-based
Settings: average of at least 2 runs unless annotated n = 1
Experimental: (§1) For example, Human colonic T84 cells can be acquired from the European Collection of Cell Cultures (ECACC) and grown in standard culture conditions as described by the supplier. On the day before assay 25,000 T84 cells per well are plated into standard black walled, clear bottom 384-well assay plates in standard growth medium consisting of DMEM:F12 with 10% FBS and incubated overnight. On the day of the assay the plates are washed using a standard assay buffer (HBSS with 10 mM Hepes) and incubated for 15 minutes in serum free cell culture medium before the addition of a commercially available membrane potential sensitive fluorescent dye (FLIPR Red membrane potential dye, Molecular Devices Corporation). T84 cells are incubated with the FLIPR Red membrane potential dye for 45 minutes in the presence and absence of test compound before being transferred to a commercially available fluorescence imaging plate reader (FLIPR384, Molecular Devices Corporation). Fluorescence levels are monitored continuously every second for 150 seconds; after an initial 10 second baseline, CFTR channel activity is stimulated through the addition of 10 μM forskolin in the presence of 100 μM of the phosphodiesterase inhibitor iso-butyl-methylxanthine (IBMX). Addition of the forskolin leads to the activation of intracellular adenylyl cylase 1, elevating cAMP levels and results in the phosphorylation and opening of CFTR anion channels. CFTR channel opening causes chloride ion efflux and subsequent depolarization of the cells, which is measured by an increase in fluorescence. CFTR inhibitor compounds prevent cell depolarization and the associated increase in fluorescence.
as §1, with “Human colonic” for “For example, Human colonic”, “T84 cells are acquired from” for “T84 cells can be acquired from”, “(ECACC) and are grown in” for “(ECACC) and grown in”

T1 sequence (P13569 whole entry): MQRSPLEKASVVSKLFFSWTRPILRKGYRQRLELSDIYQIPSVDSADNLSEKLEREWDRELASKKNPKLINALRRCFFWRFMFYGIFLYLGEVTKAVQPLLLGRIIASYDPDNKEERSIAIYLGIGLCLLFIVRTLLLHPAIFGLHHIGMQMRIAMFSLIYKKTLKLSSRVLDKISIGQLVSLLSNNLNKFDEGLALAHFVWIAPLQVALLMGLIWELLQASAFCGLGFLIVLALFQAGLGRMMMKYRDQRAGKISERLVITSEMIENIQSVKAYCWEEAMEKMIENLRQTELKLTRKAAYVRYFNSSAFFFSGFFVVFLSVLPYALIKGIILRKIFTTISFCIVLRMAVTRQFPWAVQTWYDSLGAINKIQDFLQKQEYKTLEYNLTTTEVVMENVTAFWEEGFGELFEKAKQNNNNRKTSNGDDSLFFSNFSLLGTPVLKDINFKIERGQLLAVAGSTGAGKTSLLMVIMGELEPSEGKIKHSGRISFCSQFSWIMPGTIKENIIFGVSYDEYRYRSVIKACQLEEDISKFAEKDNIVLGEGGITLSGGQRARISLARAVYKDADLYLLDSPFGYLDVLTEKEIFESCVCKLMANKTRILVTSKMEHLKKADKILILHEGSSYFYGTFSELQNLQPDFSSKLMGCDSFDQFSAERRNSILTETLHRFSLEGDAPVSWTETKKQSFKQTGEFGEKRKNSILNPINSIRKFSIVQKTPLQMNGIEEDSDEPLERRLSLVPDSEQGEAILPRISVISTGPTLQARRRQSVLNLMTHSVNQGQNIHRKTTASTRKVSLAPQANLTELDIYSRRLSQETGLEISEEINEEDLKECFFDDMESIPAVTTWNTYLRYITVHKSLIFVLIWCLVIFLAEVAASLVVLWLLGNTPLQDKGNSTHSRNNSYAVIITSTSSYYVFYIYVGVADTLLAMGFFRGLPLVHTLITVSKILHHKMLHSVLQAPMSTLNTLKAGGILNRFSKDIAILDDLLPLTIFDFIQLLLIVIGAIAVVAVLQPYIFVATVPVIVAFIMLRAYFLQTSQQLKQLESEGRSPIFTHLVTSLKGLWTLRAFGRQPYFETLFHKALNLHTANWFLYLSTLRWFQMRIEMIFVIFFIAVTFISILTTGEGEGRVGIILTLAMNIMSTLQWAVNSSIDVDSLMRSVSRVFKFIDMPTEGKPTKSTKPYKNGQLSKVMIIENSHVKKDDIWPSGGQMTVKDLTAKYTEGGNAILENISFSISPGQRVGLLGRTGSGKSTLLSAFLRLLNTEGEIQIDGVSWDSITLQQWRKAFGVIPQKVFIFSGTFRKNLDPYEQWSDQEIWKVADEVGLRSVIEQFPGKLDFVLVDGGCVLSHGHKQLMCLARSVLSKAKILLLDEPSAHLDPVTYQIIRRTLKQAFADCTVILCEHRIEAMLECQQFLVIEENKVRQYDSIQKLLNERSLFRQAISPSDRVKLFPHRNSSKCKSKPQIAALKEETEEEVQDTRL

Compound	IC50
Oc1c(Br)cc(-c2cnc(COc3ccc(F)cc3F)nn2)cc1Br [Compound 56, 2,6-dibromo-4-(3-((2,4-difluorophenoxy)methyl)-1,2,4-triazin-6-yl)phenol]	25.3 µM
CNC(=O)C1Cc2ccccc2CN1Cc1ccc(COc2ncc(-c3cc(Cl)c(O)c(Cl)c3)nn2)cc1 (centres unmarked) [Compound 185, 2-(4-((6-(3,5-dichloro-4-hydroxyphenyl)-1,2,4-triazin-3-yloxy)methyl)benzyl)-N-methyl-1,2,3,4-tetrahydroisoquinoline-3-carboxamide]	4.64 µM
Oc1c(Br)cc(-c2cnc(OCc3ccncc3)nn2)cc1Br [Compound 106, 2,6-dibromo-4-(3-(pyridin-4-ylmethoxy)-1,2,4-triazin-6-yl)phenol]	18.1 µM
Oc1c(Cl)cc(-c2cnc(OCc3ccccc3F)nn2)cc1Cl [Compound 127, 2,6-dichloro-4-(3-(2-fluorobenzyloxy)-1,2,4-triazin-6-yl)phenol]	5.46 µM
CN(Cc1ccc(COc2ncc(-c3cc(Cl)c(O)c(Cl)c3)nn2)cc1)CC(O)c1ccccc1 (centres unmarked) [Compound 161, 2,6-dichloro-4-(3-(4-(((2-hydroxy-2-phenylethyl)(methyl)amino)methyl)benzyloxy)-1,2,4-triazin-6-phenol, formate salt]	18.3 µM
Oc1c(Cl)cc(-c2cnc(NCc3ccc(Cl)cc3)nn2)cc1Cl [Compound 135, 2,6-dichloro-4-(3-(4-chlorobenzylamino)-1,2,4-triazin-6-yl)phenol]	6.14 µM
CC(C)(C)C(=O)N1CCN(Cc2ccc(COc3ncc(-c4cc(Cl)c(O)c(Cl)c4)nn3)cc2)CC1 [Compound 188, 1-(4-(4-((6-(3,5-dichloro-4-hydroxyphenyl)-1,2,4-triazin-3-yloxy)methyl)benzyl)piperazin1-yl)-2,2-dimethylpropan-1-one]	10.3 µM
CN(Cc1ccc(COc2ncc(-c3cc(Cl)c(O)c(Cl)c3)nn2)cc1)Cc1ccc(OCCN2CCOCC2)cc1 [Compound 214, 2,6-dichloro-4-(3-(4-((methyl(4-(2-morpholinoethoxy)benzyl)amino)methyl)benzyloxy)-1,2,4-triazin-6-yl)phenol]	5.19 µM
CN(CCOc1ncc(-c2cc(Cl)c(O)c(Cl)c2)nn1)Cc1ccccc1 [Compound 138, 4-(3-(2-(benzyl(methyl)amino)ethoxy)-1,2,4-triazin-6-yl)-2,6-dichlorophenol]	18.9 µM
Oc1c(Cl)cc(-c2cnc(C(O)(c3ccccc3)c3ccccc3)nn2)cc1Cl [Compound 36, 2,6-dichloro-4-(3-(hydroxydiphenylmethyl)-1,2,4-triazin-6-yl)phenol]	7.67 µM
Oc1c(Br)cc(-c2cnc(COc3ccc(Br)cc3)nn2)cc1Br [Compound 49, 2,6-dibromo-4-(3-((4-bromophenoxy)methyl)-1,2,4-triazin-6-yl)phenol]	15.3 µM
Oc1c(Cl)cc(-c2cnc(OCc3ccc(CN4CCCc5ccccc54)cc3)nn2)cc1Cl [Compound 182]	11.8 µM
Oc1c(Br)cc(-c2cnc(OC(c3cccc(C(F)(F)F)c3)c3cccc(C(F)(F)F)c3)nn2)cc1Br [Compound 109, 4-(3-(bis(3-(trifluoromethyl)phenyl)methoxy)-1,2,4-triazin-6-yl)-2,6-dibromophenol]	12.2 µM
O=C(COc1ccccc1)N1CCN(Cc2ccc(COc3ncc(-c4cc(Cl)c(O)c(Cl)c4)nn3)cc2)CC1 [Compound 155, 1-(4-(4-((6-(3,5-dichloro-4-hydroxyphenyl)-1,2,4-triazin-3-yloxy)methyl)benzyl)piperazin1-yl)-2-phenoxyethanone]	4.95 µM
CN(Cc1ccc(COc2ncc(-c3cc(Cl)c(O)c(Cl)c3)nn2)cc1)Cc1ccc(-c2ccc(C(F)(F)F)cn2)cc1 [Compound 210, 2,6-dichloro-4-(3-(4-((methyl(4-(5-(trifluoromethyl)pyridin-2-yl)benzyl)amino)methyl)benzyloxy)-1,2,4-triazin-6-yl)phenol]	6.42 µM
OCCN(Cc1cccnc1)c1ncc(-c2cc(Cl)c(O)c(Cl)c2)nn1 [Compound 160, 2,6-dichloro-4-(3-((2-hydroxyethyl)(pyridin-3-ylmethyl)amino)-1,2,4-triazin-6-yl)phenol]	22.4 µM

Molecules with a lower IC50, results first:

IC50	Compound
1.89 µM	Oc1c(Cl)cc(-c2cnc(OC(Cc3ccccc3)c3ccccc3)nn2)cc1Cl (centres unmarked) [Compound 111, 2,6-dichloro-4-(3-(1,2-diphenylethoxy)-1,2,4-triazin-6-yl)phenol]
0.54 µM	Oc1c(Br)cc(-c2cnc(OCc3ccc(F)cc3F)nn2)cc1Br [Compound 4, 2,6-dibromo-4-(3-(2,4-difluorobenzyloxy)-1,2,4-triazin-6-yl)phenol]
1.92 µM	Oc1c(Cl)cc(-c2cnc(OCc3ccc(CN4CCN(c5ccc(F)cc5F)CC4)cc3)nn2)cc1Cl [Compound 151, 2,6-dichloro-4-(3-(4-((4-(2,4-difluorophenyl)piperazin-1-yl)methyl)benzyloxy)-1,2,4-triazin-6-yl)phenol]
0.35 µM	Oc1c(Cl)cc(-c2cnc(OCCc3cccc4ccccc34)nn2)cc1Cl [Compound 115, 2,6-dichloro-4-(3-(2-(naphthalen-1-yl)ethoxy)-1,2,4-triazin-6-yl)phenol]
2.33 µM	Oc1c(Br)cc(-c2cnc(OCc3c(Cl)cc(Cl)cc3Cl)nn2)cc1Br [Compound 22, 2,6-dibromo-4-(3-(2,4,6-trichlorobenzyloxy)-1,2,4-triazin-6-yl)phenol]
3.75 µM	Oc1c(Cl)cc(-c2cnc(OCc3ccc(CN4CCN(c5ccccc5)CC4)cc3)nn2)cc1Cl [Compound 143, 2,6-dichloro-4-(3-(4-((4-phenylpiperazin-1-yl)methyl)benzyloxy)-1,2,4-triazin-6-yl)phenol]
1.3 µM	Oc1c(Cl)cc(-c2cnc(OCc3ccc(Cl)cc3)nn2)cc1Cl [Compound 113, 2,6-dichloro-4-(3-(4-chlorobenzyloxy)-1,2,4-triazin-6-yl)phenol]
3.37 µM	OCCN(Cc1ccccc1)Cc1ccc(COc2ncc(-c3cc(Cl)c(O)c(Cl)c3)nn2)cc1 [Compound 159, 4-(3-(4-((benzyl(2-hydroxyethyl)amino)methyl)benzyloxy)-1,2,4-triazin-6-yl)-2,6-dichlorophenol]
1.87 µM	CN(Cc1ccc(COc2ncc(-c3cc(Cl)c(O)c(Cl)c3)nn2)cc1)Cc1ccc(-c2ncccn2)cc1 [Compound 202, 2,6-dichloro-4-(3-(4-((methyl(4-(pyrimidin-2-yl)benzyl)amino)methyl)benzyl-oxy)-1,2,4-triazin-6-yl)phenol]
3.92 µM	CN(Cc1ccc(COc2ncc(-c3cc(Cl)c(O)c(Cl)c3)nn2)cc1)Cc1ccc(Oc2ccccn2)cc1 [Compound 176, 2,6-dichloro-4-(3-(4-((methyl(4-(pyridin-2-yloxy)benzyl)amino)methyl)benzyloxy)-1,2,4-triazin-6-yl)phenol]
0.66 µM	Oc1c(Br)cc(-c2cnc(OCCc3ccc(Cl)cc3Cl)nn2)cc1Br [Compound 10, 2,6-dibromo-4-(3-(2,4-dichlorophenethoxy)-1,2,4-triazin-6-yl)phenol]
3.55 µM	OCCN(Cc1ccc(COc2ncc(-c3cc(Cl)c(O)c(Cl)c3)nn2)cc1)Cc1cccc(OCc2ccccc2Cl)c1 [Compound 223, 2,6-dichloro-4-(3-(4-(((3-(2-chlorobenzyloxy)benzyl)(2-hydroxyethyl)amino)methyl)benzyloxy)-1,2,4-triazin-6-yl)phenol]
3.54 µM	Oc1c(Cl)cc(-c2cnc(OCc3ccc(CN4CCc5ccc(Br)cc5C4)cc3)nn2)cc1Cl [Compound 180]
2.83 µM	Oc1c(Cl)cc(-c2cnc(OCc3ccc(F)c(F)c3)nn2)cc1Cl [Compound 147, 2,6-dichloro-4-(3-(3,4-difluorobenzyloxy)-1,2,4-triazin-6-yl)phenol]
0.34 µM	Oc1c(Br)cc(-c2cnc(OCCc3ccccc3Cl)nn2)cc1Br [Compound 94, 2,6-dibromo-4-(3-(2-chlorophenethoxy)-1,2,4-triazin-6-yl)phenol]
4.09 µM	Oc1c(Br)cc(-c2cnc(OC3c4ccccc4Oc4ccccc43)nn2)cc1Br [Compound 91, 4-(3-(9H-xanthen-9-yloxy)-1,2,4-triazin-6-yl)-2,6-dibromophenol]
